Key:
[1] = tested on: ghrelin concentration in the plasma; assay: Evaluation of ghrelin secretion promoting effect (plasma ghrelin, 24-week oral ingestion); assay type: in vivo, human; conditions: for ghrelin concentration in the plasma, 0 weeks (before ingestion) / ghrelin concentration in the plasma, 24 weeks (after ingestion) / ghrelin concentration in the plasma, Change rate (24 weeks - 0 weeks): High Dose Group (200 mg/daily, oral), mean±SD; for ghrelin concentration in the plasma, 0 weeks (before ingestion): baseline
Experimental: In order to confirm a change in the ghrelin quantity before and after ingestion of the nicotinamide mononucleotide, a test was conducted on healthy males and females aged 50 to 70 years.
As a sample of Working Example 3, a capsule formulation containing the nicotinamide mononucleotide and starch (200 mg of the nicotinamide mononucleotide in 4 capsules) (manufactured by SHINKOWA PHARMACEUTICAL Co., Ltd.) was used.
(§1) Each group consisting of five healthy males and females aged 50 to 70 years in an unbiased age group ingested the above capsule formulation once a day by 4 capsules for 24 weeks (total 10 subjects, 200 mg/daily ingestion). In order to conduct appropriate evaluations, those who had been regularly using medical products for chronic diseases, those who had been consuming healthy foods that may affect clinical research, and those who were currently participating in other clinical researches or clinical trials or had participated in other clinical researches or clinical trials within the last three months were excluded from the subject for the evaluation. The capsule formulations were ingested at 10 am (between meals and fasting state) together with water or lukewarm water (oral administration).
Measurement of the ghrelin quantity in the plasma was conducted by requesting the measurement to an external public organization according to a usual method. FIGS. 6a to 6c indicate transitions of the ghrelin concentration (pg/ml) in the plasma for 24 weeks. FIG. 6a represents the transitions of the whole subjects; FIG. 6b represents the transitions of the male subjects; FIG. 6c represents the transitions of the female subjects. Further, FIGS. 7a to 7c indicate change rates (%) of the blood ghrelin concentration up to 24 weeks when the nicotinamide mononucleotide was orally administered to the subjects for 24 weeks. FIG. 7a represents the change rates of the whole subjects; FIG. 7b represents the change rates of the male subjects; FIG. 7c represents the change rates of the female subjects. Further, Table 3 indicates the numerical values of the ghrelin concentration (pg/ml) in the plasma before the ingestion of the nicotinamide mononucleotide (0 weeks) and after the ingestion of the nicotinamide mononucleotide (24 weeks). Note that the numerical values represent mean values±standard deviation.

[2] = Safety observation in subjects after ingestion for 24 weeks (complaints, stool abnormality); assay type: in vivo, human; conditions: healthy males and females aged 50 to 70 years, oral
Experimental: as §1, with “the above low dose capsule formulation” for “the above capsule formulation”, “10 subjects, a low dose group: 100 mg/daily ingestion). On the other hand, each group consisting of five healthy males and females aged 50 to 70 years in the unbiased age group ingested the above high dose capsule formulation once a day by 4 capsules for 24 weeks (total 10 subjects, a high dose group: 200 mg/daily” for “10 subjects, 200 mg/daily”, “or clinical trials, or had” for “or clinical trials or had”

NC(=O)c1ccc[n+]([C@@H]2O[C@H](COP(=O)([O-])O)[C@@H](O)[C@H]2O)c1 [nicotinamide mononucleotide]
ghrelin concentration in the plasma, 0 weeks (before ingestion) ([1]; Female): 260 ± 111 pg/mL
ghrelin concentration in the plasma, 24 weeks (after ingestion) ([1]; Female): 990 ± 834 pg/mL
ghrelin concentration in the plasma, Change rate (24 weeks - 0 weeks) ([1]; Female): 730 ± 847 pg/mL
ghrelin concentration in the plasma, 0 weeks (before ingestion) ([1]; Male): 111 ± 91 pg/mL
ghrelin concentration in the plasma, 24 weeks (after ingestion) ([1]; Male): 152 ± 131 pg/mL
ghrelin concentration in the plasma, Change rate (24 weeks - 0 weeks) ([1]; Male): 40 ± 50 pg/mL
ghrelin concentration in the plasma, 0 weeks (before ingestion) ([1]; Whole Subjects): 186 ± 124 pg/mL
ghrelin concentration in the plasma, 24 weeks (after ingestion) ([1]; Whole Subjects): 571 ± 716 pg/mL
ghrelin concentration in the plasma, Change rate (24 weeks - 0 weeks) ([1]; Whole Subjects): 385 ± 672 pg/mL
ghrelin concentrations in the plasma, effect of ingestion (in words) ([1]; oral, 200 mg/daily, 24 weeks, FIGS. 6a-6c, 7a-7c): increased
unidentified complaint (abdominal pain, nausea, vomiting, headache) or stool abnormality after the ingestion for 24 weeks ([2]; 100 mg and 200 mg/daily groups): did not show any unidentified complaint
unidentified complaint (abdominal pain, nausea, vomiting, headache) or stool abnormality after the ingestion for 24 weeks ([2]; 100 mg/daily): did not show any unidentified complaint
unidentified complaint (abdominal pain, nausea, vomiting, headache) or stool abnormality after the ingestion for 24 weeks ([2]; 200 mg/daily): did not show any unidentified complaint
